In publication PMC10400981, “An expandable, modular de novo protein platform for precision redox engineering” (Proceedings of the National Academy of Sciences of the …, 2023):

Legend:
4D2 = biological target: T1, 4D2; experiment: […] Å crystal structure (MAD); hemin titration by UV/visible; nondenaturing MS; assay type: binding, synthetic construct
T1 construct: single-chain de novo four-helix bundle, 112 amino acids after TEV cleavage

m4D2 [1] = biological target: T2, m4D2; experiment: hemin titration of apo-m4D2 by UV/visible; nondenaturing MS ([…]); assay type: binding, synthetic construct
T2 construct: monoheme redesign of 4D2

m4D2 [2] = biological target: T2, m4D2; experiment: binding titration; 2D/3D NMR of the complex; design: species or system synthetic construct

Row | Structure (SMILES) | Kd (4D2) | Kd (m4D2 [1]) | Kd (m4D2 [2])
1 | C=CC1=C(C)C2=Cc3c(C=C)c(C)c4[n]3[Fe][n]3c(c(C)c(CCC(=O)O)c3=CC3=NC(=C4)C(C)=C3CCC(=O)O)=CC1=N2 [heme B] | < 5 nM | 4.2 nM | –
2 | CC1=C(C)C2=[N+]3C1=Cc1c(C)c(CCC(=O)O)c4[n]1[Fe-]31[n]3c(c(C)c(C)c3=CC3=[N+]1C(=C4)C(CCC(=O)O)=C3C)=C2 (stereo not drawn) [Fe(III) DMDPIX] | – | – | 25 nM
